Measurements published in patent publication US8188277B2, “Aromatic compounds for suppressing the generation of collagen” (Otsuka Pharmaceutical Co., Ltd., priority 2004, dated 2012).
pIC50: −log10 of the molar value. Like-named read-outs stand apart in the source and are kept apart here.

Legend:
[1] = tested on: LI90 cells, a human stellate cell line; assay: Collagen synthesis inhibition (3H-proline incorporation) in TGF-β1-stimulated LI90 cells; type: cell-based; conditions: 10 pM h-TGF-β1, 16 hours with test compound, 3H-proline labelling 24 hours, concentration at which T/C = 0.5, read-out: Collagen synthesis inhibitory activity IC50
Experimental: The cultured cells were then washed with D-PBS(−) (DULBECCO's phosphate buffered saline), and subsequently further cultured for 3 days in MEM (Eagle's minimum essential medium) supplemented with 0.1% fetal bovine serum. The cultured cells were again washed with D-PBS(−), and cultured for 16 hours in MEM (0.1% fetal bovine serum with respect to a total MEM volume) which contained a test compound and 10 pM h-TGF-β1 (human transforming growth factor β1). Next, the cultured LI90 cells were washed with D-PBS(−), and cultured for 24 hours in MEM containing ^3H-proline (radioactive labelled compound) and 0.25 mM ascorbic acid. The produced collagen was labelled with RI (radioactive isotope). From this culture supernatant, an acid-soluble fraction was extracted. Radioactivity was measured for this fraction. The measured value was taken to be the collagen synthesis activity.
Radioactivity of the culture supernatant cultured with the test compound was compared with that of the culture supernatant cultured without the test compound to calculate a collagen synthesis inhibitory activity (T/C) and determine a concentration (μM) at which collagen synthesis was inhibited by 50% (IC50=a concentration of the test compound at which T/C corresponded to 0.5). T/C=(Radioactivity of culture supernatant cultured with the test compound)/(radioactivity of culture supernatant cultured without the test compound)

| SMILES | melting point | further results |
| --- | --- | --- |
| O=C(Nc1ccc(Oc2ccc(N3CCC(CC(=O)N4CCN(Cc5ccc6c(c5)OCO6)CC4)CC3)cc2)nc1)c1ccc(C(F)(F)F)cc1 [Example No. 319, N-[6-(4-{4-[2-(piperonyl-piperazin-1-yl)-2-oxoethyl]piperidin-1-yl}phenoxy)-pyridin-3-yl]-4-trifluoromethylbenzamide] | – | pIC50 [1]: 8.72 |
| O=C(Nc1ccc(Oc2ccc(CCC(=O)N3CCN(Cc4ccc5c(c4)OCO5)CC3)cc2)nc1)c1ccc(C(F)(F)F)cc1 [Example No. 1039, N-(6-{4-[3-(4-piperonylpiperazin-1-yl)-3-oxopropyl]phenoxy}pyridin-3-yl)-4-trifluoromethylbenzamide] | – | pIC50 ([1]; Homo sapiens): 7.66 |
| Cc1cc(N(C)CC(=O)N2CCN(Cc3ccc4c(c3)OCO4)CC2)ccc1Oc1ccc(NC(=O)c2ccc(C(F)(F)F)cc2)cn1 [Example No. 1503, N-[6-(4-{[2-(4-piperonylpiperazin-1-yl)-2-oxoethyl]methylamino}-2-methylphenoxy)pyridin-3-yl]-4-trifluoromethylbenzamide] | – | pIC50 ([1]; Homo sapiens): 8.11 |
| O=C(Nc1ccc(Cl)c(Cl)c1)c1ccc(Oc2ccc(CCC(=O)N3CCN(Cc4ccc5c(c4)OCO5)CC3)cc2)nc1 [Example No. 2100, 6-{4-[3-(4-piperonylpiperazin-1-yl)-3-oxopropyl]phenoxy}-N-(3,4-dichlorophenyl)nicotinamide] | – | pIC50 ([1]; Homo sapiens): 7.10 |
| Cc1cc(N(C)CC(=O)N2CCN(C(=O)c3ccc4c(c3)OCO4)CC2)ccc1Oc1ccc(NC(=O)c2ccc(Cl)c(Cl)c2)cn1 [compound 2054] | 133 to 135 °C | – |
| CC(=O)N(c1ccc(CCC(=O)N2CCN(Cc3ccc4c(c3)OCO4)CC2)cc1)c1ccc(NC(=O)c2ccc(Cl)c(Cl)c2)cn1 [compound 2099, N-[6-(Acetyl{4-[3-oxo-3-(4-piperonylpiperazin-1-yl)propyl]phenyl}amino)pyridin-3-yl]-3,4-dichlorobenzamide] | 150 to 165 °C | – |
| O=C(Nc1ccc(Oc2ccc(C3=CCN(CCCn4ccnc4)CC3)cc2)cc1)c1ccc(Cl)c(Cl)c1 [compound 2486, 3,4-Dichloro-N-(4-{4-[1-(3-imidazole-1-ylpropyl)-1,2,3,6-tetrahydropyridine-4-yl]phenoxy}phenyl)-benzamide] | 169 to 171 °C | – |
| O=C(Nc1ccc(Oc2ccc(N3CCN(C(=O)CN4CCOCC4)CC3)cc2)cc1)c1ccc(Cl)c(Cl)c1 [compound 2559] | 177 to 178 °C | – |
| O=C(CN1CCOCC1)c1ccc(Oc2ccc(NC(=O)c3ccc(Cl)c(Cl)c3)cc2F)cc1 [compound 2563] | 177 to 178 °C | – |
| O=C(Nc1ccc(Oc2ccc(C3=CCN(C(=O)CN4CCOCC4)CC3)cc2)cc1)c1ccc(Cl)c(Cl)c1 [compound 2565] | 195 to 197 °C | – |
| CN(C(=O)CN1CCOCC1)C1CCN(c2ccc(Oc3ccc(NC(=O)c4ccc(Cl)c(Cl)c4)cc3)cc2)CC1 [compound 2572] | 157 to 160 °C | – |

Continued, in another order:

| melting point | SMILES | further results |
| --- | --- | --- |
| 142 to 145 °C | O=C(Nc1ccc(Oc2ccc(C(O)CN3CCOCC3)cc2)c(F)c1)c1ccc(Cl)c(Cl)c1 (stereo not drawn) [compound 2677] | – |
| 163 to 166 °C | CCN(CC(=O)N1CCN(Cc2ccc3c(c2)OCO3)CC1)c1ccc(Oc2ccc(NS(=O)(=O)c3ccc(Cl)c(Cl)c3)cn2)c(F)c1 [compound 2695, N-[6-(4-{[2-(4-piperonylpiperazin-1-yl)-2-oxoethyl]ethylamino}-2-fluorophenoxy)pyridin-3-yl]-3,4-dichlorobenzenesulfonamide] | – |
| 156 to 158 °C | Cc1cc(N2CCC(CC(=O)N3CCN(Cc4ccc5c(c4)OCO5)CC3)CC2)ccc1Oc1ccc(NS(=O)(=O)c2ccc(C(F)(F)F)cc2)cn1 [compound 2703, N-[6-(4-{4-[2-(4-piperonylpiperazin-1-yl)-2-oxoethyl]piperidin-1-yl}-2-methylphenoxy)pyridin-3-yl]-4-trifluoromethylbenzenesulfonamide] | – |
| 185 to 189 °C | O=C(C1CCN(c2ccc(Oc3ccc(NS(=O)(=O)c4ccc(Cl)c(Cl)c4)cn3)cc2)CC1)N1CCN(Cc2ccccc2)CC1 [compound 2710, N-(6-{4-[4-(4-benzylpiperazine-1-carbonyl)piperidin-1-yl]phenoxy}pyridin-3-yl)-3,4-dichlorobenzenesulfonamide] | – |
| 163.1 to 166.5 °C | Cc1cc(N(C)CC(=O)N2CCN(Cc3ccc4c(c3)OCO4)CC2)ccc1Oc1ccc(NC(=O)c2ccc(-n3cccc3)cc2)cn1 [compound 2711, N-[6-(4-{[2-(4-piperonylpiperazin-1-yl)-2-oxoethyl]methylamino}-2-methylphenoxy)pyridin-3-yl]-4-pyrrole-1-ylbenzamide] | – |
| 177.8 to 180.1 °C | CCN(CC(=O)N1CCN(Cc2ccc3c(c2)OCO3)CC1)c1ccc(Oc2ccc(NS(=O)(=O)c3ccc(C(F)(F)F)cc3)cn2)c(F)c1 [compound 2712, N-[6-(4-{[2-(4-piperonylpiperazin-1-yl)-2-oxoethyl]ethylamino}-2-fluorophenoxy)pyridin-3-yl]-4-trifluoromethylbenzenesulfonamide] | – |
| 169 to 170 °C | O=C(Nc1ccc(Oc2ccc(C(O)CN3CCOCC3)cc2)c(F)c1)c1ccc(Cl)c(Cl)c1 (stereo not drawn) [compound 2715, 3,4-dichloro-N-{3-fluoro-4-[4-(1-hydroxy-2-morpholine-4-ylethyl)phenoxy]phenyl}benzamide] | – |
